Common to all, as to test: DSF 100 kinase selectivity screen;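 also: compound tested at 20 µM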
Assay type in all cases: binding

The target of experiment [1] is T1, ~100 representative kinases (Homo sapiens, UniProt P12931).
T1 construct: Recombinant protein kinase domains with a concentration of 2 μM
Particulars: Protein SRC; DSF; average of three replicates. Summed up: (§1)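 Each kinase domain, at 2 μM, is mixed with 20 μM test compound and SYPRO Orange in Hepes (20 mM, pH 7.5) with 500 mM NaCl. Temperature is then raised at 3°C/min and fluorescence-monitored unfolding yields the melting temperature change, ΔTm in degrees Celsius.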

Experiment [2] deals with T2, ~100 representative kinases (Homo sapiens, UniProt P21675).
T2 construct: Recombinant protein kinase domains with a concentration of 2 μM
T2 sequence (P21675 whole entry, the tested form may be a part): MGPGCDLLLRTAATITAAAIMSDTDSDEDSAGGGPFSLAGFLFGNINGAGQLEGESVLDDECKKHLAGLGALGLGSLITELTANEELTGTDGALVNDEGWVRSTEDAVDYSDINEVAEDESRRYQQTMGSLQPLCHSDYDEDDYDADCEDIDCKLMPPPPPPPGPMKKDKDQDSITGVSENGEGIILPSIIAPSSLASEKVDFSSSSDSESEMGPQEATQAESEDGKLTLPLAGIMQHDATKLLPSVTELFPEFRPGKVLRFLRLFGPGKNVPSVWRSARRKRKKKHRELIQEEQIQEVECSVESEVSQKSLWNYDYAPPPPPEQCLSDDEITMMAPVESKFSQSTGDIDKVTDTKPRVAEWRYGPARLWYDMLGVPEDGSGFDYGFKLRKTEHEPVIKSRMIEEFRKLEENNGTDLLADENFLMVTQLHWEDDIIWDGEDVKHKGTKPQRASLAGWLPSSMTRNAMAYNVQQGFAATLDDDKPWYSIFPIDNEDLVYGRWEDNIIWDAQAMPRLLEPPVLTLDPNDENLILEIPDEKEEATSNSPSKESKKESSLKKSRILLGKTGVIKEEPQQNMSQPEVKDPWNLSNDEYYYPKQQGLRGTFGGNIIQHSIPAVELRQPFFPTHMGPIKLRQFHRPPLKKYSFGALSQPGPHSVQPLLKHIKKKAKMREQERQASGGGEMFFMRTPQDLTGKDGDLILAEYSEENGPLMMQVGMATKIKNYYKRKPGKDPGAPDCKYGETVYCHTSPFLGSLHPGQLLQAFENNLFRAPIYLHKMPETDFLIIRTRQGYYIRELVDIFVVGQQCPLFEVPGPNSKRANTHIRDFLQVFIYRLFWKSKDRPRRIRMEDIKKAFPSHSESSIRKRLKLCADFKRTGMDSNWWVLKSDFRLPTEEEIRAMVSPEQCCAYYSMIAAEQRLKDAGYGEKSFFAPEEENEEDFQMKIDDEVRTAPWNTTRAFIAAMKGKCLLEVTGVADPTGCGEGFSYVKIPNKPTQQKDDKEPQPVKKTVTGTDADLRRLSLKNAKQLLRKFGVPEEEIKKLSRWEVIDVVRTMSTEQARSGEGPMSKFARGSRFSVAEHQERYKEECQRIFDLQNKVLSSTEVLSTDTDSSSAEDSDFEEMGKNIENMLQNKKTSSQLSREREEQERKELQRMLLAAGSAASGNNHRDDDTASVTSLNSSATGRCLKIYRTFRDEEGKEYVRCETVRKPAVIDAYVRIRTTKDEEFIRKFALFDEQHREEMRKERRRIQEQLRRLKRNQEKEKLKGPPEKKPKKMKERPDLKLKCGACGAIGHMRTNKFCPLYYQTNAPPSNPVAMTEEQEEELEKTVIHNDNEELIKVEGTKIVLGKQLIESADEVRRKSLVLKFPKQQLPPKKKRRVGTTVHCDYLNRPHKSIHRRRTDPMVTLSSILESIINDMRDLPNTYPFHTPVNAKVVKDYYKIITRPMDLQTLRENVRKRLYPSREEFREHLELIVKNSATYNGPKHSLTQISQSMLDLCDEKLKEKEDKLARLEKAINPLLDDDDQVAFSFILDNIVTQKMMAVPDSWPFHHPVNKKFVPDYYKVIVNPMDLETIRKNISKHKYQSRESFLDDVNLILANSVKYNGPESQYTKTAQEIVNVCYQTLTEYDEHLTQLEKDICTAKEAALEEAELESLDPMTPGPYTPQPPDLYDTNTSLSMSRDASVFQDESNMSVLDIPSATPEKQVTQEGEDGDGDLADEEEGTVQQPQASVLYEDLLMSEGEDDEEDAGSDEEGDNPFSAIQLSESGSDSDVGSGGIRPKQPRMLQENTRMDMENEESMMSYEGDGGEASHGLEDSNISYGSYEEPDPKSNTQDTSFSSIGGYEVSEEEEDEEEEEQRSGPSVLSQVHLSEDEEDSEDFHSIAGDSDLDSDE
Particulars: Protein TAF1; DSF; average of three replicates. Summed up: as §1

For experiment [3], the target named is T3, ~100 representative kinases (Homo sapiens, UniProt Q16566).
T3 construct: Recombinant protein kinase domains with a concentration of 2 μM
T3 sequence (Q16566 1-473): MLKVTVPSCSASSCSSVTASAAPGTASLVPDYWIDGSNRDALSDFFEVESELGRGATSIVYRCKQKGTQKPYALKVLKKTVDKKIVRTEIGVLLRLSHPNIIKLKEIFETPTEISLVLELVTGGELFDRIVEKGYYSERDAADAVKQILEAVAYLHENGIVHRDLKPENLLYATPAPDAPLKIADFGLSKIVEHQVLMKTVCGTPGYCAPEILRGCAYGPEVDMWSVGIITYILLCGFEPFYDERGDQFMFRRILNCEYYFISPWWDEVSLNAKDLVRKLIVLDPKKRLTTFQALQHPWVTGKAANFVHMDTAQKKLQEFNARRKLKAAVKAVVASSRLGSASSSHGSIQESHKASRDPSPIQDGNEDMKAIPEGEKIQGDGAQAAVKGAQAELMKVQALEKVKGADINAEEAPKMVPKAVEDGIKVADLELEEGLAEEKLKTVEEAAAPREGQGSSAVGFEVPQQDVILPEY
Particulars: Protein CAMK4; average of three replicates. The essentials: as §1

Experiment [4] concerns the target T4, ~100 representative kinases (Homo sapiens, UniProt Q09013).
T4 construct: Recombinant protein kinase domains with a concentration of 2 μM
T4 sequence (Q09013 1-629): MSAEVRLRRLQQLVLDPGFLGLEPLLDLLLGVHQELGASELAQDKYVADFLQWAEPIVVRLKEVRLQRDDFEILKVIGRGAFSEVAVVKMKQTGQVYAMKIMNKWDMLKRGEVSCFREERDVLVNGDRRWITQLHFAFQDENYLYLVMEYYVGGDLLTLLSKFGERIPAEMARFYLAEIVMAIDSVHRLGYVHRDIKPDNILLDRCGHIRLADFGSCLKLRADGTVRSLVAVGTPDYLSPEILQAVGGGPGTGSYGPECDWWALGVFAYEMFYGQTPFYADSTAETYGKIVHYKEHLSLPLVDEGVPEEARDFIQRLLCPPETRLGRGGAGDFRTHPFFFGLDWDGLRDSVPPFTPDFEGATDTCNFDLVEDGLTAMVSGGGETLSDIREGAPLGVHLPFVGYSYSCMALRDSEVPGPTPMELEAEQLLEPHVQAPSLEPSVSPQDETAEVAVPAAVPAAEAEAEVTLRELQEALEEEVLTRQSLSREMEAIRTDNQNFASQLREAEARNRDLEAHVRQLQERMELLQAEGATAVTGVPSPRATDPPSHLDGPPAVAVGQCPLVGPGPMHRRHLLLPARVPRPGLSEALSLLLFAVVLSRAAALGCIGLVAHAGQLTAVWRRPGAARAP
The settings on record: Protein DMPK1; average of three replicates. Summed up: as §1

The target of experiment [5] is T5, ~100 representative kinases (Homo sapiens, UniProt P45984).
T5 construct: Recombinant protein kinase domains with a concentration of 2 μM
T5 sequence (P45984 whole entry, the tested form may be a part): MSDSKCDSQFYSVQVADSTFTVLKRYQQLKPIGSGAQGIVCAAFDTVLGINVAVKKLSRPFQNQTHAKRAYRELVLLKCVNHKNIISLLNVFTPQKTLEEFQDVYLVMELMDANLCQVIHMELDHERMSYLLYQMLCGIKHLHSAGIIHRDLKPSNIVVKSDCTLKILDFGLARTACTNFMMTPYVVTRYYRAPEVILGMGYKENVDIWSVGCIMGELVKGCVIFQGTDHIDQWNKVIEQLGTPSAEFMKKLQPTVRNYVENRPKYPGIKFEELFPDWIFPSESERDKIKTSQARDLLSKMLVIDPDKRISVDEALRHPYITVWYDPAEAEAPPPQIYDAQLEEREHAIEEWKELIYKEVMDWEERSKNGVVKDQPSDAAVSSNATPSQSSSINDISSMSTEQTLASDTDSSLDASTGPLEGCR
The settings on record: protein MAPK9; average of three replicates. The essentials:
as §1

Experiment [6] addresses T6, ~100 representative kinases (Homo sapiens, UniProt P53779).
T6 construct: Recombinant protein kinase domains with a concentration of 2 μM
Particulars: protein MAPK10; average of three replicates. The essentials: as §1

Experiment [7] addresses T7, ~100 representative kinases (Homo sapiens, UniProt Q16539).
T7 construct: Recombinant protein kinase domains with a concentration of 2 μM
The settings on record: protein MAPK14; average of three replicates. The essentials: as §1

For experiment [8], the target named is T8, ~100 representative kinases (Homo sapiens, UniProt Q9P289).
T8 construct: Recombinant protein kinase domains with a concentration of 2 μM
T8 sequence (Q9P289 whole entry, the tested form may be a part): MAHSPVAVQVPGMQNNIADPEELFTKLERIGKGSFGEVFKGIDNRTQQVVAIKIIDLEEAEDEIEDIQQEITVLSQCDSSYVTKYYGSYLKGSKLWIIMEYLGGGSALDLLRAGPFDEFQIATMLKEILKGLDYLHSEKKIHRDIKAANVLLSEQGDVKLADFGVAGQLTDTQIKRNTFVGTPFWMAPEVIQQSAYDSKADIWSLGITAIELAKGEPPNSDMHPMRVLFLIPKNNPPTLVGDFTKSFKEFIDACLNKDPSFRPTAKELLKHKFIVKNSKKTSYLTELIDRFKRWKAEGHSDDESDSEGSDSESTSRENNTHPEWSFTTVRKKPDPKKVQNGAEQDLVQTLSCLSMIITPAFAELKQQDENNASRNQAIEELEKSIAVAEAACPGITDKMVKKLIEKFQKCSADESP
Particulars: protein MST4; average of three replicates. Summed up:
as §1

The target of experiment [9] is T9, ~100 representative kinases (Homo sapiens, UniProt Q6PHR2).
T9 construct: Recombinant protein kinase domains with a concentration of 2 μM
T9 sequence (Q6PHR2 1-472): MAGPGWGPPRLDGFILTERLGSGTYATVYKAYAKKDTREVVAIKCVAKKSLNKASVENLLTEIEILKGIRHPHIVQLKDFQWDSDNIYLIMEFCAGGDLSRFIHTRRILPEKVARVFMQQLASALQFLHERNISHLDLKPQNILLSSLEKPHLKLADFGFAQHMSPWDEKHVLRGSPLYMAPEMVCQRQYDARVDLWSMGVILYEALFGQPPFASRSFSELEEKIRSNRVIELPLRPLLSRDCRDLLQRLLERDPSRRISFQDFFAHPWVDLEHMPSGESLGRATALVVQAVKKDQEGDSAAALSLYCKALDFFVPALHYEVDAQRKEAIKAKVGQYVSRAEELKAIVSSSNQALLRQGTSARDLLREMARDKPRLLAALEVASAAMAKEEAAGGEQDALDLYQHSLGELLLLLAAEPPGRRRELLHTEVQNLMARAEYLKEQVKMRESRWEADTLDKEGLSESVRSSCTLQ
The settings on record: Protein ULK3; DSF; average of three replicates. The essentials:
as §1

Experiment [10] deals with T10, ~100 representative kinases (Homo sapiens, UniProt P11309).
T10 construct: Recombinant protein kinase domains with a concentration of 2 μM
T10 sequence (P11309 whole entry, the tested form may be a part): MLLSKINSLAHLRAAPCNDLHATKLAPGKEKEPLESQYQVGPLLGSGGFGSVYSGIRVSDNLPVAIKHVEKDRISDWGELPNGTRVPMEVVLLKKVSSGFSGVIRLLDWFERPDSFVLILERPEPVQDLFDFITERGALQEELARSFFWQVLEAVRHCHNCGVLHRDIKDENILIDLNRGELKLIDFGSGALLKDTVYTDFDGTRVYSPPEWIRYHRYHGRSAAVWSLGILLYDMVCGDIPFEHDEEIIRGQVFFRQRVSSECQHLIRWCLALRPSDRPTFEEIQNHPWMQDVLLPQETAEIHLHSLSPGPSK
Particulars: protein PIM1; average of three replicates. Summed up:
as §1

T1 sequence (P12931 whole entry, the tested form may be a part): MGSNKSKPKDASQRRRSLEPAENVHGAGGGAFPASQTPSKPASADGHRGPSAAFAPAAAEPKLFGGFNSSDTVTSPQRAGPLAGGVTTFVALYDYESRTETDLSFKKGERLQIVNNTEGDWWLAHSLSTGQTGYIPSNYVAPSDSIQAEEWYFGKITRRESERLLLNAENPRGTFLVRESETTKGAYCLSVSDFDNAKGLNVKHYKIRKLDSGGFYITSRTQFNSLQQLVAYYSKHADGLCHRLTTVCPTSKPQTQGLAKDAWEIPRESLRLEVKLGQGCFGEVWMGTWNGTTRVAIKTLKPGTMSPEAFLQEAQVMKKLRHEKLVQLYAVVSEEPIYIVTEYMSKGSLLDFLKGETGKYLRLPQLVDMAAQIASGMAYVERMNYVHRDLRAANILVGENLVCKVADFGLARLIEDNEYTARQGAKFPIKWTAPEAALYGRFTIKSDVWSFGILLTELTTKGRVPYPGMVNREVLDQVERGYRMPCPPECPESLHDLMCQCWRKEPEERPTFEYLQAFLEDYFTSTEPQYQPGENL
T7 sequence (Q16539 whole entry, the tested form may be a part): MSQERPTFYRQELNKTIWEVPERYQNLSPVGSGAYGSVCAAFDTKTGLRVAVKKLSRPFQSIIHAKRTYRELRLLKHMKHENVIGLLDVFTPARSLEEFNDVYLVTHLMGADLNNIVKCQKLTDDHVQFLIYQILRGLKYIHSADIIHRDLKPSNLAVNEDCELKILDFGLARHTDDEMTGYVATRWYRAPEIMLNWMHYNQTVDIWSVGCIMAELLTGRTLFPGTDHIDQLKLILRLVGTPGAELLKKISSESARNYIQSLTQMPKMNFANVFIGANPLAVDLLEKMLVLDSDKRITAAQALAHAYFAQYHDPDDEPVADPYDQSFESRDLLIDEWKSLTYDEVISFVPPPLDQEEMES
T6 sequence (P53779 whole entry, the tested form may be a part): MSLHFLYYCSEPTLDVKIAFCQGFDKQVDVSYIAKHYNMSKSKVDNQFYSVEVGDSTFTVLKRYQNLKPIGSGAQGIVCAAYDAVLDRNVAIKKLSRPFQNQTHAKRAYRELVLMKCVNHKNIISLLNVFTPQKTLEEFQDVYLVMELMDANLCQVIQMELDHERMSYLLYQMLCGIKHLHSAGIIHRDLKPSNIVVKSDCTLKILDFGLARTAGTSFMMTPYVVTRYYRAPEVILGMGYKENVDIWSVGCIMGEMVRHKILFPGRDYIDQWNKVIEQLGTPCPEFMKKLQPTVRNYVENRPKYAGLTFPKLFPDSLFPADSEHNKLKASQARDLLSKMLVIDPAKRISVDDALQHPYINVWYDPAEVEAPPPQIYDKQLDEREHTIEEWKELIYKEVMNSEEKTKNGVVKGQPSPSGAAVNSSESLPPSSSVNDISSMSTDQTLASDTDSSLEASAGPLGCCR

For the compound `O=C(Nc1cccc(-c2c[nH]c3ncnc(N4CCOCC4)c23)c1)C1(C(=O)Nc2ccc(F)c(F)c2)CC1` [Compound 17], the dTm in [1] is on record as 1.01 K; in experiment [2], 0.99 K; in experiment [3], 1.60 K; in experiment [4], -0.94 K; in experiment [5], 2.95 K; in [6] it was 1.84 K. Moreover, the dTm in experiment [7] came out at 0.53 K; in [8], 6.01 K; in experiment [9], 7.52 K; in [10], 3.60 K.

As to `O=C(Nc1cccc(-c2c[nH]c3ncnc(N4CCOCC4)c23)c1)C1(C(=O)Nc2ccc(F)c(Cl)c2)CC1` [Compound 18], the dTm is listed as 1.18 K in experiment [1]; 1.40 K in experiment [2]; 3.34 K in experiment [3]; -0.69 K in experiment [4]; 5.44 K in experiment [5]; 3.57 K in experiment [6]. Moreover, the dTm is recorded as 1.31 K in [7], 6.98 K in [8], 9.54 K in experiment [9] and 5.41 K in experiment [10].

Regarding `O=C(Nc1cccc(-c2c[nH]c3ncnc(N4CCOCC4)c23)c1)C1(C(=O)Nc2ccc(F)c(Br)c2)CC1` [Compound 19], the dTm is -0.25 K in experiment [1]; 0.00 K in [2]; 4.72 K in experiment [3]; -0.17 K in [4]; 5.82 K in experiment [5]; 4.40 K in experiment [6]. Further, the dTm in [7] is given as 3.30 K; in experiment [8], 6.31 K; in [9] it was 5.66 K; in [10] it was 3.98 K.

As to `Cc1cc(NC(=O)C2(C(=O)Nc3cccc(-c4c[nH]c5ncnc(N6CCOCC6)c45)c3)CC2)ccc1F` [Compound 20], the dTm in experiment [1] was 1.91 K; in experiment [2], 0.99 K; in [3] it was 4.77 K; in experiment [4], -1.17 K; in [5] it was 6.61 K; in experiment [6], 0.56 K. The dTm in experiment [7] came to 1.97 K; in experiment [8], 7.93 K; in experiment [9] it was 10.21 K; in [10], 5.73 K.

Turning to `COc1cc(NC(=O)C2(C(=O)Nc3cccc(-c4c[nH]c5ncnc(N6CCOCC6)c45)c3)CC2)ccc1F` [Compound 21], the dTm in experiment [1] is recorded as 0.91 K; in experiment [2], 0.37 K; in experiment [3] it was 2.09 K; in experiment [4], -1.06 K; in [5], 3.60 K; in [6] it was 0.29 K. The dTm was determined as 0.76 K in experiment [7], 6.10 K in experiment [8], 8.22 K in experiment [9] and 3.07 K in experiment [10].

Take `CC(C)(C)c1cccc(NC(=O)C2(C(=O)Nc3cccc(-c4c[nH]c5ncnc(N6CCOCC6)c45)c3)CC2)c1` [Compound 22]: the dTm in [1] is -0.0179 K; in experiment [2] it was 1.24 K; in experiment [3], 1.51 K; in [4], -0.60 K; in [5], 1.21 K; in [6], 1.37 K. Further, the dTm in [7] stood at 0.60 K; in experiment [8], 4.41 K; in experiment [9], 11.44 K; in [10], 4.89 K.

For the compound `O=C(Nc1cccc(-c2c[nH]c3ncnc(N4CCOCC4)c23)c1)C1(C(=O)Nc2ccc(F)cc2F)CC1` [Compound 23], the dTm in experiment [1] is 0.45 K; in [2], 0.59 K; in experiment [3], 0.57 K; in experiment [4], -0.57 K; in experiment [5] it was 2.02 K; in [6], -0.75 K. Besides, the dTm is reported as -0.38 K in [7], 3.92 K in experiment [8], 8.50 K in experiment [9] and 0.61 K in experiment [10].

For `Cc1cc(F)ccc1NC(=O)C1(C(=O)Nc2cccc(-c3c[nH]c4ncnc(N5CCOCC5)c34)c2)CC1` [Compound 24], the dTm is 0.70 K in experiment [1]; 0.30 K in experiment [2]; 0.42 K in experiment [3]; -1.04 K in experiment [4]; 2.21 K in experiment [5]; -0.11 K in experiment [6]. Also, the dTm in experiment [7] is given as -0.59 K; in experiment [8], 2.44 K; in [9] it was 7.53 K; in experiment [10], 0.58 K.

As to `O=C(Nc1cccc(-c2c[nH]c3ncnc(N4CCOCC4)c23)c1)C1(C(=O)Nc2cc(Br)c(F)cc2F)CC1` [Compound 25], the dTm in experiment [1] is reported as -0.23 K; in experiment [2], 1.63 K; in [3], 1.53 K; in [4], 0.24 K; in experiment [5], 4.88 K; in experiment [6] it was 3.64 K. Further, the dTm was 2.03 K in experiment [7], 1.80 K in experiment [8], 9.25 K in experiment [9] and 2.04 K in experiment [10].

In the case of `O=C(Nc1cccc(-c2c[nH]c3ncnc(N4CCOCC4)c23)c1)C1(C(=O)Nc2ccc(F)c(Br)c2F)CC1` [Compound 26], the dTm in [1] is -0.13 K; in experiment [2] it was -1.20 K; in experiment [3], 1.91 K; in [4], -0.0242 K; in experiment [5] it was 4.90 K; in experiment [6], 5.85 K. The dTm in experiment [7] is listed as 2.01 K; in experiment [8] it was 1.39 K; in experiment [9], 7.33 K; in experiment [10] it was 1.29 K.

With `O=C(Nc1cc(F)cc(Br)c1)C1(C(=O)Nc2cccc(-c3c[nH]c4ncnc(N5CCOCC5)c34)c2)CC1` [Compound 27], the dTm in experiment [1] was 0.35 K; in experiment [2], -2.32 K; in [3], 0.92 K; in experiment [4], -0.12 K; in experiment [5] it was 4.80 K; in experiment [6], 5.93 K. Besides, the dTm in [7] amounted to 1.86 K; in experiment [8] it was 3.14 K; in [9], 7.46 K; in experiment [10], 1.64 K.

For the origin of these results see paper PMC12136037, “Type II kinase inhibitors that target Parkinson’s disease–associated LRRK2” (Science Advances, 2025).
